The first test addresses T1, human CGT (Homo sapiens, UniProt Q16880).
T1 sequence (Q16880 21-541): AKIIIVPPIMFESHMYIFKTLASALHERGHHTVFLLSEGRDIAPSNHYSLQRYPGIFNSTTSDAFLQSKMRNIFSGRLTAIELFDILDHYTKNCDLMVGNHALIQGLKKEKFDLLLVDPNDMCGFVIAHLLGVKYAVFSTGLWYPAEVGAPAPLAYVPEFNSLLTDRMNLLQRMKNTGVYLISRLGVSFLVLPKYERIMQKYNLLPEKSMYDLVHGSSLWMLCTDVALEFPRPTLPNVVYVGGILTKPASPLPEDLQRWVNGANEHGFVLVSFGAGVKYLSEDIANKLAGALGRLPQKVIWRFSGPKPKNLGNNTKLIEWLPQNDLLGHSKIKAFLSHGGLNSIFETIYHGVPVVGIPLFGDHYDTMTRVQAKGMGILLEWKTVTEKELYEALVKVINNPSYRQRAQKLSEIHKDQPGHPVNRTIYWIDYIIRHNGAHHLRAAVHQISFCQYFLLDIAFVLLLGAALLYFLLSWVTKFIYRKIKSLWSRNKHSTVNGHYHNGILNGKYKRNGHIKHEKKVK
In words: Assay 1: CGT Enzymatic Assay (RapidFire/MS/MS, 0.01% Tween 80). The format is biochemical. The following applies: Table 1, Compounds of Formula (I) and Formula (II); CGT enzymatic assay, C6-NBD-dihydro-galactosylceramide readout; read-out: IC50.
As to `COC[C@@]1(C)N(c2ccc(Cl)cc2)C(=O)N(c2ccc(Cl)cc2)[C@]1(O)c1cccc(OC(F)(F)F)c1` [Compound 296-4, (4S,5R)-1,3-bis(4-chlorophenyl)-4-hydroxy-5-(methoxymethyl)-5-methyl-4-(3-(trifluoromethoxy)phenyl)imidazolidin-2-one], the IC50 (in general, the point on the concentration scale where inhibition reaches its midpoint) was < 1 µM.
Regarding `N#Cc1ccc(N2C(=O)N(c3ccc(Br)cc3)C(O)(c3cccc(OC(F)(F)F)c3)C23CCCC3)cc1` (stereo not shown) [Example 325, 4-(3-(4-bromophenyl)-4-hydroxy-2-oxo-4-(3-(trifluoromethoxy)phenyl)-1,3-diazaspiro[4.4]nonan-1-yl)benzonitrile], the IC50 was < 1 µM.
Same read-out and setting: in the case of `CC(C)c1c(-c2ccccc2)n(-c2ccc(Br)cc2)c(=O)n1-c1ccc(Br)cc1` [Compound 267, 1,3-bis(4-bromophenyl)-4-isopropyl-5-phenyl-1,3-dihydro-2H-imidazol-2-one] it was < 1 µM; in that of `N#Cc1ccc(N2C(=O)N(c3ccc(Cl)cc3)C(O)(c3cccc(C#N)c3)C23CCC3)cc1` (stereo not shown) [Compound 268, 3-(7-(4-chlorophenyl)-5-(4-cyanophenyl)-8-hydroxy-6-oxo-5,7-diazaspiro[3.4]octan-8-yl)benzonitrile], < 1 µM; in that of `Cc1ccc(N2C(=O)N(c3ccc(C)cc3)C(O)(c3cccc(OC(F)(F)F)c3)C23CCCC3)cc1` (stereo not shown) [Example 327, 4-hydroxy-1,3-di-p-tolyl-4-(3-(trifluoromethoxy)phenyl)-1,3-diazaspiro[4.4]nonan-2-one], < 1 µM.
As for `CC1(C)N(c2ccc(Cl)cc2)C(=O)N(c2ccc(Cl)cc2)C1(O)c1cccc(C2CCO2)c1` (stereo not shown) [Example 324-1, 1,3-bis(4-chlorophenyl)-4-hydroxy-5,5-dimethyl-4-(3-(oxetan-2-yl)phenyl)imidazolidin-2-one], the IC50 is < 1 µM.

The same test, now with this note: Table 1, Compounds of Formula (I) and Formula (II); CGT enzymatic assay; read-out: IC50.
Consider `CCC1N(c2ccc(Cl)cc2)C(=O)N(c2ccc(Cl)cc2)C1(O)c1cccc(OC(F)F)c1` (stereo not shown) [Compound 118, 1,3-bis(4-chlorophenyl)-4-(3-(difluoromethoxy)phenyl)-5-ethyl-4-hydroxyimidazolidin-2-one], for which the IC50 was < 1 µM.
`COC[C@@H]1N(c2ccc(Cl)cc2)C(=O)N(c2ccc(Cl)cc2)C1(O)c1cccc(OC(F)F)c1` (stereo partly drawn) [Compound 238-1, (5S)-1,3-bis(4-chlorophenyl)-4-(3-(difluoromethoxy)phenyl)-4-hydroxy-5-(methoxymethyl)imidazolidin-2-one]: the concentration for half-maximal inhibition (IC50) was < 1 µM.
The same measure, in the same setting: in the case of `CC1(C(F)(F)F)N(c2ccc(Cl)cc2)C(=O)N(c2ccc(Cl)cc2)C1(O)c1cccc(C#N)c1` (stereo not shown) [Example 177, 3-(1,3-bis(4-chlorophenyl)-4-hydroxy-5-methyl-2-oxo-5-(trifluoromethyl)imidazolidin-4-yl)benzonitrile] it was < 1 µM.
Still for that read-out and setting: in the case of `O=C1N(c2ccc(Br)cc2)CC(O)(c2cccc(Cl)c2)N1c1ccc(Br)cc1` (stereo not shown) [Example 35, 1,3-bis(4-bromophenyl)-4-(3-chlorophenyl)-4-hydroxyimidazolidin-2-one] it was 1 to 10 µM; in that of `CCC[C@H]1N(c2ccc(Cl)cc2)C(=O)N(c2ccc(Cl)cc2)C1(O)c1cccc(OC(F)(F)F)c1` (stereo partly drawn) [Compound 91-2, (5R)-1,3-bis(4-chlorophenyl)-4-hydroxy-5-propyl-4-(3-(trifluoromethoxy)phenyl)imidazolidin-2-one], < 1 µM.
The same measure, in the same setting: then `CC1(C)N(c2ccc(Cl)cc2)C(=O)N(c2ccc(Cl)cc2)C1(O)c1cc(Br)cc(C#N)c1` (stereo not shown) [Example 158, 3-(1,3-bis(4-chlorophenyl)-4-hydroxy-5,5-dimethyl-2-oxoimidazolidin-4-yl)-5-bromobenzonitrile], with < 1 µM; and `O=C1N(c2ccc(Br)cc2)C(=O)C(O)(c2nccs2)N1c1ccc(Br)cc1` (stereo not shown) [Example 201, 1,3-bis(4-bromophenyl)-5-hydroxy-5-(thiazol-2-yl)imidazolidine-2,4-dione], with > 50 µM; and `C[C@H]1N(c2ccccc2)C(=O)N(c2ccccc2)C1(O)c1cccc(OC(F)(F)F)c1` (stereo partly drawn) [Example 230-2, (5R)-4-hydroxy-5-methyl-1,3-diphenyl-4-(3-(trifluoromethoxy)phenyl)imidazolidin-2-one], with 1 to 10 µM.
Turning to `C#Cc1cccc(C2(O)C(C)N(c3ccc(Cl)cc3)C(=O)N2c2ccc(Cl)cc2)c1` (stereo not shown) [Compound 93, 1,3-bis(4-chlorophenyl)-4-(3-ethynylphenyl)-4-hydroxy-5-methylimidazolidin-2-one], the IC50 was < 1 µM.
Same read-out and setting: in the case of `COCc1c(-c2cccc(C(F)(F)F)c2)n(-c2ccc(Cl)cc2)c(=O)n1-c1ccc(Cl)cc1` [Example 41, 1,3-bis(4-chlorophenyl)-4-(methoxymethyl)-5-(3-(trifluoromethyl)phenyl)-1,3-dihydro-2H-imidazol-2-one] it was < 1 µM.
Same read-out and setting: then `CCCc1c(-c2cccc(C(F)(F)F)c2)n(-c2ccc(Cl)cc2)c(=O)n1-c1ccc(Cl)cc1` [Compound 243, 1,3-bis(4-chlorophenyl)-4-propyl-5-(3-(trifluoromethyl)phenyl)-1,3-dihydro-2H-imidazol-2-one], with 1 to 10 µM.
On the same count and under the same terms, in the case of `C[C@H]1N(c2ccc(Cl)cc2)C(=O)N(c2ccc(Cl)cc2)C1(O)c1cccc(Cl)c1` (single isomer, unassigned) [Compound 62-2] it was < 1 µM; in that of `O=C1N(c2ccc(Cl)cc2)[C@@H](c2ccccc2)[C@@](O)(CO)N1c1ccc(Cl)cc1` [Example 218-2, (4R,5S)-1,3-bis(4-chlorophenyl)-4-hydroxy-4-(hydroxymethyl)-5-phenylimidazolidin-2-one], 10 to 50 µM.
On to `CCCCC1N(c2ccc(Cl)cc2)C(=O)N(c2ccc(Cl)cc2)C1(O)c1cccc(C#N)c1` (stereo not shown) [Compound 116, 3-(5-butyl-1,3-bis(4-chlorophenyl)-4-hydroxy-2-oxoimidazolidin-4-yl)benzonitrile], for which the IC50 was < 1 µM.
Still for that read-out and setting: in the case of `Cc1cc(C)cc(C2(O)[C@H](C)N(c3ccc(Br)cc3)C(=O)N2c2ccc(Br)cc2)c1` (stereo partly shown) [Example 42-1] it was < 1 µM; in that of `CCc1ccc(N2C(=O)N(c3ccc(CC)cc3)C(O)(c3cccc(C#N)c3)[C@H]2C)cc1` (single isomer, unassigned) [Compound 104-2], < 1 µM; in that of `Cc1cccc([C@]2(C)C(O)N(c3ccc(Cl)cc3)C(=O)N2c2ccc(Cl)cc2)c1` (single isomer, unassigned) [Example 222-2], < 1 µM.
For the molecule `C[C@]1(c2cccc(C(F)(F)F)c2)C(O)N(c2ccc(Br)cc2)C(=O)N1c1ccc(Br)cc1` (stereo partly drawn) [Example 219-1, (4S)-1,3-bis(4-bromophenyl)-5-hydroxy-4-methyl-4-(3-(trifluoromethyl)phenyl)imidazolidin-2-one], the IC50 lay in the range of 10 to 50 µM.
On the same count and under the same terms, then `CCC1(O)CN(c2ccc(Br)cc2)C(=O)N1c1ccc(Br)cc1` (stereo not shown) [Example 4, 1,3-bis(4-bromophenyl)-4-ethyl-4-hydroxyimidazolidin-2-one], with 10 to 50 µM; and `C[C@]1(c2cccc(Cl)c2)C(O)N(c2ccc(Cl)cc2)C(=O)N1c1ccc(Cl)cc1` (single isomer, unassigned) [Compound 149-1], with 1 to 10 µM; and `CC1N(c2ccc(Cl)cc2)C(=O)N(c2ccc(Cl)cc2)C1(O)c1cccc(Cl)c1` (stereo not shown) [Compound 62, 4-(3-chlorophenyl)-1,3-bis(4-chlorophenyl)-4-hydroxy-5-methylimidazolidin-2-one], with < 1 µM.
Still for that read-out and setting: in the case of `CCC[C@@H]1N(c2ccc(Cl)cc2)C(=O)N(c2ccc(Cl)cc2)C1(O)c1cccc(OC(F)(F)F)c1` (stereo partly drawn) [Compound 91-1, (5S)-1,3-bis(4-chlorophenyl)-4-hydroxy-5-propyl-4-(3-(trifluoromethoxy)phenyl)imidazolidin-2-one] it was < 1 µM; in that of `O=C1N(c2ccc(Br)cc2)C(C2CC2)C(O)(c2ccccc2)N1c1ccc(Br)cc1` (stereo not shown) [Compound 115, 1,3-bis(4-bromophenyl)-5-cyclopropyl-4-hydroxy-4-phenylimidazolidin-2-one], < 1 µM.
For the molecule `O=C1N(c2ccc(Cl)cc2)C(C2COC2)C(O)(c2cccc(OC(F)(F)F)c2)N1c1ccc(Cl)cc1` (stereo not shown) [Compound 237, 1,3-bis(4-chlorophenyl)-4-hydroxy-5-(oxetan-3-yl)-4-(3-(trifluoromethoxy)phenyl)imidazolidin-2-one], the IC50 was < 1 µM.
Same read-out and setting: in the case of `CC1(C)N(c2ccc(Cl)cc2)C(=O)N(c2ccc(Cl)cc2)C1(O)c1cccc(C#N)c1` (stereo not shown) [Compound 138, 3-(1,3-bis(4-chlorophenyl)-4-hydroxy-5,5-dimethyl-2-oxoimidazolidin-4-yl)benzonitrile] it was < 1 µM; in that of `O=C1N(c2cccc(Cl)c2)C(=O)C(O)(c2ccccc2)N1c1cccc(Cl)c1` (stereo not shown) [Example 162, 1,3-bis(3-chlorophenyl)-5-hydroxy-5-phenylimidazolidine-2,4-dione], 10 to 50 µM.
The same measure, in the same setting: then `CC#Cc1cccc(C2(O)C(C)N(c3ccc(Cl)cc3)C(=O)N2c2ccc(Cl)cc2)c1` (stereo not shown) [Compound 103, 1,3-bis(4-chlorophenyl)-4-hydroxy-5-methyl-4-(3-(prop-1-yn-1-yl)phenyl)imidazolidin-2-one], with < 1 µM; and `CC[C@H]1N(c2ccc(Cl)cc2)C(=O)N(c2ccc(Cl)cc2)C1(O)c1cccc(C(F)(F)F)c1` (stereo partly drawn) [Compound 80-2, (5R)-1,3-bis(4-chlorophenyl)-5-ethyl-4-hydroxy-4-(3-(trifluoromethyl)phenyl)imidazolidin-2-one], with < 1 µM.

These data come from US20190134005A1 (BioMarin Pharmaceutical Inc., priority 2016, published 2019).
